PubChem BioAssay (NCI)
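Briefly, cells in 96-well plates were exposed to five compound concentrations for 48 h, and endpoints were estimated by linear interpolation. At the TGI there is no net growth.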

What was measured:
Assay in all cases: growth of human tumour cells (NCI), 48 h
EKVX NSCLC = tested on: EKVX NSCLC
HOP-92 NSCLC = tested on: HOP-92 NSCLC
MALME-3M melanoma = tested on: MALME-3M melanoma
NCI-H23 lung = tested on: NCI-H23 lung
NCI-H522 lung = tested on: NCI-H522 lung
OVCAR-8 ovarian = tested on: OVCAR-8 ovarian
SK-MEL-2 melanoma = tested on: SK-MEL-2 melanoma
TK-10 renal = tested on: TK-10 renal
U251 CNS = tested on: U251 CNS
UACC-257 melanoma = tested on: UACC-257 melanoma
HS 578T breast = tested on: HS 578T breast
KM12 colon = tested on: KM12 colon
MOLT-4 leukemia = tested on: MOLT-4 leukemia
RPMI-8226 leukemia = tested on: RPMI-8226 leukemia
MDA-MB-231 breast = tested on: MDA-MB-231 breast

In the case of CC(=O)Nc1ccc(C(=O)NN2C(=O)C(Cl)C2c2ccccc2O)cc1 (configuration not stated), the TGI (EKVX NSCLC) is reported as > 100 µM, the TGI (HOP-92 NSCLC) is reported as > 100 µM and the TGI (MALME-3M melanoma) is reported as > 100 µM. The TGI (NCI-H23 lung) was 78.3 µM, the TGI (NCI-H522 lung) was > 100 µM and the TGI (OVCAR-8 ovarian) was > 100 µM. For the same compound, the TGI (SK-MEL-2 melanoma) was > 100 µM, the TGI (TK-10 renal) was > 100 µM and the TGI (U251 CNS) was > 100 µM. For the same compound, the TGI (UACC-257 melanoma) was > 100 µM.

C=CC[C@@H]1C(=O)[C@@]2(O[Si](C(C)C)(C(C)C)C(C)C)CC[C@@H]1C[C@H]2NC(=O)OCC(Cl)(Cl)Cl was tested, and the TGI (HS 578T breast) was > 100 µM, the TGI (KM12 colon) was > 100 µM and the TGI (MOLT-4 leukemia) was > 100 µM. The TGI (NCI-H23 lung) was > 100 µM, the TGI (NCI-H522 lung) was 0.0356 µM and the TGI (OVCAR-8 ovarian) was > 100 µM. For the same compound, the TGI (SK-MEL-2 melanoma) was > 100 µM, the TGI (TK-10 renal) was > 100 µM and the TGI (U251 CNS) was > 100 µM. For the same compound, the TGI (UACC-257 melanoma) was > 100 µM.

Cn1c2cc(O)cc(O)c2c(=O)c2c([N+](=O)[O-])cccc21 was tested, and the TGI (EKVX NSCLC) was > 100 µM, the TGI (HOP-92 NSCLC) was > 100 µM and the TGI (KM12 colon) was > 100 µM. The TGI (MALME-3M melanoma) was > 100 µM, the TGI (MOLT-4 leukemia) was > 100 µM and the TGI (NCI-H23 lung) was > 100 µM. For the same compound, the TGI (NCI-H522 lung) was > 100 µM, the TGI (OVCAR-8 ovarian) was > 100 µM and the TGI (RPMI-8226 leukemia) was > 100 µM. The TGI (SK-MEL-2 melanoma) was > 100 µM, the TGI (TK-10 renal) was > 100 µM and the TGI (U251 CNS) was > 100 µM. For the same compound, the TGI (UACC-257 melanoma) was > 100 µM.

For Cc1cc(OCC(=O)N/N=C/C(Br)=C/c2ccccc2)nc(SCC(=O)N/N=C/C(Br)=C/c2ccccc2)n1, the TGI (EKVX NSCLC) was > 100 µM, the TGI (HOP-92 NSCLC) was 86.4 µM and the TGI (HS 578T breast) was > 100 µM. For the same compound, the TGI (KM12 colon) was > 100 µM, the TGI (NCI-H23 lung) was > 100 µM and the TGI (NCI-H522 lung) was > 100 µM. The TGI (RPMI-8226 leukemia) was > 100 µM, the TGI (U251 CNS) was > 100 µM and the TGI (UACC-257 melanoma) was > 100 µM.

With CCOC(=O)c1ccc(-n2c(SCC)nc3sc(C)c(C)c3c2=O)cc1 the TGI (EKVX NSCLC) was > 100 µM, the TGI (HOP-92 NSCLC) was > 100 µM and the TGI (KM12 colon) was > 100 µM. The TGI (MALME-3M melanoma) was > 100 µM, the TGI (NCI-H23 lung) was > 100 µM and the TGI (NCI-H522 lung) was > 100 µM. For the same compound, the TGI (OVCAR-8 ovarian) was > 100 µM, the TGI (RPMI-8226 leukemia) was > 100 µM and the TGI (SK-MEL-2 melanoma) was > 100 µM. For the same compound, the TGI (TK-10 renal) was > 100 µM, the TGI (U251 CNS) was > 100 µM and the TGI (UACC-257 melanoma) was > 100 µM.

In the case of O=c1cc(-c2ccc(Cl)cc2)oc2cc(OCCCOc3ccc4c(=O)cc(-c5ccc(Cl)cc5)oc4c3)ccc12, the TGI (EKVX NSCLC) is reported as > 100 µM, the TGI (HOP-92 NSCLC) is reported as > 100 µM and the TGI (KM12 colon) is reported as > 100 µM. For the same compound, the TGI (MALME-3M melanoma) was > 100 µM, the TGI (MOLT-4 leukemia) was > 100 µM and the TGI (NCI-H23 lung) was > 100 µM. The TGI (NCI-H522 lung) was > 100 µM, the TGI (OVCAR-8 ovarian) was > 100 µM and the TGI (RPMI-8226 leukemia) was > 100 µM. The TGI (SK-MEL-2 melanoma) was > 100 µM, the TGI (TK-10 renal) was > 100 µM and the TGI (U251 CNS) was > 100 µM. The TGI (UACC-257 melanoma) was > 100 µM.

With O=C(c1ccc(Br)cc1)n1c2ccc(Br)cc2c2nc3ccccc3nc21 the TGI (EKVX NSCLC) was > 100 µM, the TGI (HOP-92 NSCLC) was > 100 µM and the TGI (KM12 colon) was > 100 µM. The TGI (MALME-3M melanoma) was > 100 µM, the TGI (MOLT-4 leukemia) was > 100 µM and the TGI (NCI-H23 lung) was > 100 µM. For the same compound, the TGI (NCI-H522 lung) was > 100 µM, the TGI (OVCAR-8 ovarian) was > 100 µM and the TGI (RPMI-8226 leukemia) was > 100 µM. The TGI (SK-MEL-2 melanoma) was > 100 µM, the TGI (TK-10 renal) was > 100 µM and the TGI (U251 CNS) was > 100 µM. For the same compound, the TGI (UACC-257 melanoma) was > 100 µM.

Nc1nc(Cl)c2nnn(CC3CCC(CO)C3)c2n1 (configuration not stated) was tested, and the TGI (EKVX NSCLC) was > 100 µM, the TGI (HOP-92 NSCLC) was > 100 µM and the TGI (HS 578T breast) was > 100 µM. For the same compound, the TGI (KM12 colon) was > 100 µM, the TGI (MDA-MB-231 breast) was > 100 µM and the TGI (RPMI-8226 leukemia) was > 100 µM. For the same compound, the TGI (SK-MEL-2 melanoma) was > 100 µM, the TGI (TK-10 renal) was > 100 µM and the TGI (U251 CNS) was > 100 µM. The TGI (UACC-257 melanoma) was > 100 µM.

[N-]=[N+]=NC(CBr)c1cn([C@H]2C[C@H](O)[C@@H](CO)O2)c(=O)[nH]c1=O (some centres not stated) was tested, and the TGI (EKVX NSCLC) was > 100 µM, the TGI (HOP-92 NSCLC) was > 100 µM and the TGI (KM12 colon) was > 100 µM. For the same compound, the TGI (MALME-3M melanoma) was > 100 µM, the TGI (MOLT-4 leukemia) was > 100 µM and the TGI (NCI-H23 lung) was > 100 µM. The TGI (NCI-H522 lung) was > 100 µM, the TGI (OVCAR-8 ovarian) was > 100 µM and the TGI (RPMI-8226 leukemia) was > 100 µM. For the same compound, the TGI (SK-MEL-2 melanoma) was > 100 µM, the TGI (TK-10 renal) was > 100 µM and the TGI (U251 CNS) was > 100 µM.

With O=C(O)CCCOc1cc(-c2ccccc2F)nc2cc3c(cc12)OCO3 the TGI (EKVX NSCLC) was > 100 µM, the TGI (HOP-92 NSCLC) was 95.6 µM and the TGI (KM12 colon) was > 100 µM. For the same compound, the TGI (MALME-3M melanoma) was > 100 µM, the TGI (MDA-MB-231 breast) was > 100 µM and the TGI (MOLT-4 leukemia) was 71.3 µM. The TGI (NCI-H23 lung) was > 100 µM, the TGI (OVCAR-8 ovarian) was > 100 µM and the TGI (RPMI-8226 leukemia) was > 100 µM. For the same compound, the TGI (SK-MEL-2 melanoma) was > 100 µM, the TGI (TK-10 renal) was > 100 µM and the TGI (U251 CNS) was > 100 µM.

For COc1cc(/C=C2/C(=O)N(C(=O)c3ccc(Cl)cc3)N=C2C)cc(OC)c1OC, the TGI (EKVX NSCLC) was > 100 µM, the TGI (HOP-92 NSCLC) was > 100 µM and the TGI (KM12 colon) was > 100 µM. For the same compound, the TGI (MALME-3M melanoma) was > 100 µM, the TGI (MOLT-4 leukemia) was > 100 µM and the TGI (NCI-H23 lung) was > 100 µM. For the same compound, the TGI (NCI-H522 lung) was > 100 µM, the TGI (OVCAR-8 ovarian) was > 100 µM and the TGI (RPMI-8226 leukemia) was > 100 µM. For the same compound, the TGI (SK-MEL-2 melanoma) was > 100 µM, the TGI (TK-10 renal) was > 100 µM and the TGI (U251 CNS) was > 100 µM. For the same compound, the TGI (UACC-257 melanoma) was > 100 µM.

COc1ccc2c(c1)CCC1=CC3(CCC12C)SCCS3 (configuration not stated) was tested, and the TGI (HOP-92 NSCLC) was > 10 µM, the TGI (KM12 colon) was > 10 µM and the TGI (MALME-3M melanoma) was > 10 µM. For the same compound, the TGI (MDA-MB-231 breast) was > 10 µM, the TGI (MOLT-4 leukemia) was > 10 µM and the TGI (NCI-H23 lung) was > 10 µM. The TGI (NCI-H522 lung) was > 10 µM, the TGI (OVCAR-8 ovarian) was > 10 µM and the TGI (RPMI-8226 leukemia) was > 10 µM. The TGI (TK-10 renal) was > 10 µM, the TGI (U251 CNS) was > 10 µM and the TGI (UACC-257 melanoma) was > 10 µM.

With COC(=O)[C@@]12OC[C@]34C([C@@H](O)C1O)[C@@]1(C)CC(=O)C(OC(=O)/C=C(/c5ccccc5)C(F)(F)F)=C(C)C1C[C@H]3OC(=O)[C@H](O)[C@H]42 (some centres not stated) the TGI (EKVX NSCLC) was > 50 µM, the TGI (HOP-92 NSCLC) was 43.7 µM and the TGI (KM12 colon) was > 50 µM. It also gave a TGI (MALME-3M melanoma) of 28.9 µM, a TGI (MOLT-4 leukemia) of 26.9 µM and a TGI (NCI-H23 lung) of 19.7 µM. For the same compound, the TGI (NCI-H522 lung) was 24.5 µM, the TGI (OVCAR-8 ovarian) was > 50 µM and the TGI (RPMI-8226 leukemia) was 13.9 µM. The TGI (SK-MEL-2 melanoma) was 27.4 µM, the TGI (TK-10 renal) was > 50 µM and the TGI (U251 CNS) was > 50 µM. For the same compound, the TGI (UACC-257 melanoma) was > 50 µM.
